# Results as given in patent US20260191849A1, “PHARMACEUTICAL COMPOSITION FOR TREATMENT OF CANCER” (WIGEN BIOMEDICINE TECHNOLOGY (SHANGHAI) CO., LTD., priority 2022, published 2026).
# Read-outs that look alike come from different tables or passages of the source.
# Experiments:
# Format in all cases: cell-based
# [1] = system: HCT116 cells; test: Combined use of compound 257 or AMG650 with PLK1 inhibitor on HCT116 cell viability, 168 h (Biological Example 8)
# Method: (§1) HCT116 cells were seeded on a 384-well plate at 3000 cells/well. After overnight adherence culture, DMSO or compound 257 or AMG650 serially diluted in a 1:5 ratio from 10 μM and a PLK1 inhibitor with a specified concentration were added. The cell viability was assessed 168 h after dosing by measuring the intracellular ATP content. The inhibition percentages of viable cells by the compounds were calculated by comparing with the DMSO group, and the IC50 values were also calculated.
# [2] = system: SK-OV-3 cells; test: Combined use of compound 257 or AMG650 with PLK1 inhibitor on SK-OV-3 cell viability, 168 h (Biological Example 21); conditions: for IC50: Homo sapiens, SK-OV-3, 168 h
# Method: (§2) SK—OV-3 cells were seeded on a 384-well plate at 3000 cells/well. After overnight adherence culture, DMSO or compound 257 or AMG650 serially diluted in a 1:5 ratio from 400 nM and a PLK1 inhibitor with a specified concentration were added. The cell viability was assessed 168 h after dosing by measuring the intracellular ATP content. […] Furthermore, interactions between the drugs were also analyzed using the BLISS independence model, and the results are shown in FIG. 11 and FIG. 12.
# [3] = system: HT29 cells; test: Combined use of compound 257 or AMG650 with PLK1 inhibitor (Volasertib) on HT29 cell viability, 168 h (Biological Example 22); conditions: for IC50: Homo sapiens, HT-29, 168 h
# Method: as §2, with “HT29” for “SK—OV-3”, “15” for “11”, “16.” for “12.”
# [4] = system: HT29 cells; test: Combined use of compound 257 or AMG650 with PLK1 inhibitor on HT29 cell viability, 168 h (Biological Example 7); conditions: for Maximum inhibition rate / Minimum inhibition rate / IC50: HT29 cells; for IC50: Homo sapiens, HT-29, 168 h
# Method: as §1, with “HT29” for “HCT116”, “400 nM” for “10 μM”
# [5] = system: HT29 cells; test: Combined use of compound 257, AMG650 or Compound A with PLK1 inhibitor on HT29 cell viability, 168 h (Biological Example 19); conditions: for IC50: Homo sapiens, HT-29, 168 h, HT29 cells, read-out: IC50
# Method: HT29 cells were seeded on a 384-well plate at 3000 cells/well.
# [6] = system: HCT116 cells; test: Combined use of compound 257, AMG650 or Compound A with PLK1 inhibitor on HCT116 cell viability, 168 h (Biological Example 20)
# Method: as §1, with “257, AMG650,” for “257”, “Compound A” for “AMG650”, “400 nM” for “10 μM”
compound,measurement,setting,value
Cc1cc(NC(=O)c2ccc(NS(=O)(=O)CCO)cc2N2CCC3(CC2)CC3)nc(N2CCC(F)(F)CC2)n1 [AMG650],IC50,"[1]; HCT116 cells, Volasertib 3.12 nM",> 10000 nM
same,IC50,"[1]; HCT116 cells, Volasertib 6.25 nM",> 10000 nM
same,IC50,"[1]; Homo sapiens, HCT-116, HCT116 cells, Volasertib 0 nM",> 10000 nM
same,"synergistic effect on HCT116 cell viability, combined use with the PLK1 inhibitor","[1]; Volasertib, in words",no significant synergistic effect
same,"anti-proliferative activity against HCT116 cells, monotherapy",[1]; in words,did not exhibit anti-proliferative activity
same,"inhibitory effect on SK-OV-3 cells, combined use with the PLK1 inhibitor compared with monotherapy","[2]; 168 h, Volasertib, in words",stronger inhibitory effect
same,IC50,[2],66 nM
same,IC50,"[2]; SK-OV-3 cells, 168 h, Volasertib 0.0001 nM, read-out: IC50",72.2 nM
same,IC50,"[2]; SK-OV-3 cells, 168 h, Volasertib 6.25 nM, read-out: IC50",51.7 nM
same,IC50,"[2]; SK-OV-3 cells, 168 h, Volasertib 12.5 nM, read-out: IC50",34.5 nM
same,IC50,"[2]; SK-OV-3 cells, 168 h, Volasertib 25 nM, read-out: IC50",27.1 nM
same,IC50,"[2]; SK-OV-3 cells, 168 h, Volasertib 50 nM, read-out: IC50",11.2 nM
same,"inhibitory effect on HT-29 cells, combined use with the PLK1 inhibitor compared with monotherapy","[3]; 168 h, Volasertib, in words",stronger inhibitory effect
same,IC50,[3],30.2 nM
same,IC50,"[3]; HT29 cells, 168 h, Volasertib 0.0001 nM, read-out: IC50",79.9 nM
same,IC50,"[3]; HT29 cells, 168 h, Volasertib 3.13 nM, read-out: IC50",43 nM
same,IC50,"[3]; HT29 cells, 168 h, Volasertib 12.5 nM, read-out: IC50",14.2 nM
same,IC50,"[3]; HT29 cells, 168 h, Volasertib 25 nM, read-out: IC50",5.9 nM
same,Maximum inhibition rate,[4]; Volasertib 0 nM,96.5%
same,Minimum inhibition rate,[4]; Volasertib 0 nM,−1.4%
same,Maximum inhibition rate,[4]; Volasertib 3.12 nM,95.8%
same,Minimum inhibition rate,[4]; Volasertib 3.12 nM,3.3%
same,Maximum inhibition rate,[4]; Volasertib 6.25 nM,97.0%
same,Minimum inhibition rate,[4]; Volasertib 6.25 nM,−0.4%
same,IC50,[4]; Volasertib 0 nM,84.4 nM
same,IC50,[4]; Volasertib 3.12 nM,26.6 nM
same,IC50,[4]; Volasertib 6.25 nM,16.4 nM
same,"inhibitory effect on HT-29 cells, combined use with the PLK1 inhibitor compared with monotherapy","[4]; Volasertib, in words",stronger inhibitory effect
same,"inhibitory effect on HT-29 cells, combined use with the PLK1 inhibitor compared with monotherapy","[5]; CYC140 or TAK-960, in words",stronger inhibitory effect
same,IC50,[5]; CYC140 (Plogosertib) 0.0001 nM,91.8 nM
same,IC50,[5]; CYC140 (Plogosertib) 1.6 nM,74.4 nM
same,IC50,[5]; CYC140 (Plogosertib) 8 nM,50.6 nM
same,IC50,[5]; CYC140 (Plogosertib) 40 nM,11.1 nM
same,IC50,[5]; TAK-960 0.0001 nM,88.9 nM
same,IC50,[5]; TAK-960 1.6 nM,58.6 nM
same,IC50,[5]; TAK-960 8 nM,16.5 nM
same,IC50,[5]; TAK-960 40 nM,16.1 nM
same,"synergistic effect on HCT116 cell viability, combined use with the PLK1 inhibitor","[6]; CYC140 or TAK-960, in words",no significant synergistic effect
same,IC50,"[6]; HCT116 cells, CYC140 (Plogosertib) 1.6 nM",> 400 nM
same,IC50,"[6]; HCT116 cells, CYC140 (Plogosertib) 8 nM",> 400 nM
same,IC50,"[6]; HCT116 cells, CYC140 (Plogosertib) 40 nM",> 400 nM
same,IC50,"[6]; HCT116 cells, TAK-960 0 nM",> 400 nM
same,IC50,"[6]; HCT116 cells, TAK-960 1.6 nM",> 400 nM
same,IC50,"[6]; HCT116 cells, TAK-960 8 nM",> 400 nM
same,IC50,"[6]; HCT116 cells, TAK-960 40 nM",> 400 nM
same,IC50,"[6]; Homo sapiens, HCT-116, HCT116 cells, CYC140 (Plogosertib) 0 nM",> 400 nM
same,"anti-proliferative activity against HCT116 cells, monotherapy",[6]; in words,did not exhibit anti-proliferative activity
